BindingDB's records for doi:10.1016/j.bmcl.2008.12.086 (Columbia University, 2009)

Columns and labels:
Transcription factor p65 [1] = target: T1, Transcription factor p65 (Human, UniProt Q04206); assay: Induction of NF-kappaB p65 nuclear translocation in HUVEC cells by immunostaining
Transcription factor p65 [2] = target: T1, Transcription factor p65; assay: Potentiation of TNF-alpha-induced NF-kappaB p65 nuclear translocation in HUVEC cells by immunostaining

T1 sequence (Q04206 whole entry): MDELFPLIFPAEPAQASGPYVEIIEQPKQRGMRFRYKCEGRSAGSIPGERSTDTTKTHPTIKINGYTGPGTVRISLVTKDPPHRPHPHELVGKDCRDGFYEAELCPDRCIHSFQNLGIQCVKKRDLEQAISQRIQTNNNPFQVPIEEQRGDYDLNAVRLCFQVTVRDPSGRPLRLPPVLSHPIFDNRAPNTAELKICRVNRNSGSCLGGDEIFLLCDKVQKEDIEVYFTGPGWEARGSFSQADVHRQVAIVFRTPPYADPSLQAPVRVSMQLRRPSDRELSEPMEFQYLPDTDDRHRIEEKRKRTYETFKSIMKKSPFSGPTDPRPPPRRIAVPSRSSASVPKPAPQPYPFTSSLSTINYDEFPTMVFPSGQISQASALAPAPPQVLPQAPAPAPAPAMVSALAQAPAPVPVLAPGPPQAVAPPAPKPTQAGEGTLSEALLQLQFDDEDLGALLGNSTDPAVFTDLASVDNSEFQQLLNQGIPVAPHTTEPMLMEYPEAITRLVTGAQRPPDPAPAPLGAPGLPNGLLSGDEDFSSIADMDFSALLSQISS

| Structure (SMILES) | EC50 (Transcription factor p65 [1]) [nM] | EC50 (Transcription factor p65 [2]) [nM] |
| --- | --- | --- |
| COc1ccc(Cl)c2nc(-c3cccs3)nc(NN3C(=O)C=C(C)C3=O)c12 [1-(8-chloro-5-methoxy-2-(thiophen-2-yl)quinazolin-4-ylamino)-3-methyl-1H-pyrrole-2,5-dione] | 2400 | 310 |
| COc1ccc2nc(-c3cccs3)nc(NN3C(=O)C=C(C)C3=O)c2c1 [1-(6-methoxy-2-(thiophen-2-yl)quinazolin-4-ylamino)-3-methyl-1H-pyrrole-2,5-dione] | 9800 | 42000 |
| COc1cccc2nc(-c3cccs3)nc(NN3C(=O)C=C(C)C3=O)c12 [1-(5-Methoxy-2-thiophen-2-yl-quinazolin-4-ylamino)-3-methyl-pyrrole-2,5-dione] | 1600 | 380 |
